The source of these data is ChEMBL document CHEMBL1201862, “PubChem BioAssay data set” (2004).

Common to all, as to assay: inhibition of tumour cell growth, NCI panel, 48 h
Experiment [1] concerns HT-29.
The subject of experiment [2] is OVCAR-3.
Experiment [3] relates to OVCAR-4.
The subject of experiment [4] is HCT-15.
Experiment [5] deals with U-251.
Experiment [6] relates to M14.
Experiment [7] concerns SNB-75.
In experiment [8] the test system is SN12C.
Experiment [9] deals with XF498.
Experiment [10] concerns SF-268.
For experiment [11], the system named is SF-539.
Experiment [12] relates to MOLT-4.
The test system of experiment [13] is HL-60.
In experiment [14] the test system is Malme-3M.
The subject of experiment [15] is EKVX.
The test system of experiment [16] is CCRF-CEM.
Experiment [17] concerns NCI-H522.
The test system of experiment [18] is BT-549.
Experiment [19] concerns MDA-MB-435.
Experiment [20] concerns MDA-N.

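Values below derive from 48-hour exposures of cells grown in 96-well plates, with endpoints linearly interpolated between the two concentrations bracketing the appropriate inhibition level. GI50 marks 50% less growth.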 The source made the active and inactive calls. No stated cut-off is given here; in the data, active = GI50 up to about 1.1 µM and inactive = higher.

As to `CCCCC(C(=O)C(=O)Nc1ccc(C)cc1C)C(=O)C(C)C` (stereo unspecified), the GI50 was > 100 µM (inactive) in [1]; > 100 µM (inactive) in [2]; > 100 µM (inactive) in [3]; more than 100 µM in [4]; > 100 µM (inactive) in experiment [5]; > 100 µM (inactive) in experiment [6]. Besides, the GI50 in [7], in [8], in experiment [9], in [10], in experiment [11] and in [12] was > 100 µM (inactive) throughout. In addition, the GI50 in experiment [13], in [14] and in experiment [15] was > 100 µM (inactive) in each case.
Consider `COc1ccc(NC(=O)C2=CC(=O)c3ccc(O)cc3C2=O)c(OC)c1`, for which the GI50 in [1] is > 100 µM (inactive); in experiment [2], > 100 µM (inactive); in [3], > 100 µM (inactive); in experiment [16] it was > 100 µM (inactive); in experiment [4], more than 100 µM; in experiment [5] it was > 100 µM (inactive). The GI50 in [6], in experiment [7], in experiment [8], in experiment [9], in experiment [10] and in experiment [11] was > 100 µM (inactive) each time. Moreover, the GI50 in experiment [12], in [13], in [14] and in experiment [15] was > 100 µM (inactive) throughout.
In the case of `Cc1cc2c(C)n(Cc3ccc(Cl)cc3Cl)nc2c(C(=O)O)c1C`, the GI50 was > 100 µM (inactive) in experiment [1]; > 100 µM (inactive) in experiment [2]; > 100 µM (inactive) in experiment [16]; 91.2 µM in [4]; > 100 µM (inactive) in experiment [5]; > 100 µM (inactive) in [7]. Besides, the GI50 was 63.4 µM (inactive) in experiment [8]; > 100 µM (inactive) in experiment [9]; > 100 µM (inactive) in [10]; > 100 µM (inactive) in experiment [11]; > 100 µM (inactive) in experiment [12]; > 100 µM (inactive) in experiment [13]. The GI50 in experiment [14] and in [15] was > 100 µM (inactive) in each case.
In the case of `S=C(N/N=C/c1ccccc1)NC1CC(c2ccccc2)Oc2ccccc21` (stereo unspecified), the GI50 is > 100 µM (inactive) in experiment [17]; 53 µM (inactive) in [1]; 8.95 µM (inactive) in experiment [2]; 16.9 µM (inactive) in experiment [3]; > 10 µM (inactive) in [16]; 33.4 µM (inactive) in experiment [5]. The GI50 in [6] was 15.3 µM (inactive); in experiment [7], 7.16 µM (inactive); in experiment [8], > 100 µM (inactive); in experiment [9], 34.5 µM (inactive); in [10] it was 51.4 µM (inactive); in experiment [11], 38.3 µM (inactive). Moreover, the GI50 in [12] was > 10 µM (inactive); in experiment [14], 68.1 µM (inactive); in experiment [15], 18.8 µM (inactive).
Turning to `CCOC(=O)/C(O)=C(/C(=O)OC)c1ccc(Cl)cc1`, the GI50 in experiment [1] was > 100 µM (inactive); in experiment [2], > 100 µM (inactive); in experiment [3], > 100 µM (inactive); in experiment [16], > 100 µM (inactive); in [4] it was more than 100 µM; in [5], > 100 µM (inactive). Also, the GI50 in experiment [6], in experiment [7], in [8], in experiment [9], in [10] and in [11] was > 100 µM (inactive) each time. Further, the GI50 in experiment [12], in [14] and in [15] was > 100 µM (inactive) throughout.
Take `Cc1ccc(Cc2c(=O)[nH]nc3ccccc23)cc1`: the GI50 in experiment [1] is > 100 µM (inactive); in experiment [2], > 100 µM (inactive); in [3], > 100 µM (inactive); in experiment [16], > 100 µM (inactive); in [4], more than 100 µM; in [6], > 100 µM (inactive). In addition, the GI50 in experiment [7] is 79.8 µM (inactive); in [8] it was > 100 µM (inactive); in [9], 30.2 µM (inactive); in [10] it was > 100 µM (inactive); in [11], > 100 µM (inactive); in experiment [12] it was > 100 µM (inactive). In addition, the GI50 in experiment [14] and in experiment [15] was > 100 µM (inactive) each time.
Consider `c1ccc2c(c1)cc1n2CCc2c-1[nH]c1ccccc21`, for which the GI50 in experiment [17], in experiment [1], in experiment [2], in [3], in [18] and in experiment [16] was > 10 µM (inactive) each time. Also, the GI50 in [4] is 5.12 µM; in experiment [19] it was > 10 µM (inactive); in experiment [5], > 10 µM (inactive); in experiment [20] it was > 10 µM (inactive); in experiment [6] it was > 10 µM (inactive); in experiment [7], > 10 µM (inactive). Further, the GI50 in experiment [8], in experiment [10], in [11], in experiment [12], in [13] and in experiment [14] was > 10 µM (inactive) throughout. Further, the GI50 in [15] is > 10 µM (inactive).
On to `O=C(O)c1ccccc1-c1ccccc1C(=O)c1ccccc1`, for which the GI50 in experiment [17], in [1], in experiment [2], in experiment [3], in experiment [18] and in experiment [16] was > 100 µM (inactive) in each case. The GI50 is more than 100 µM in experiment [4]; > 100 µM (inactive) in experiment [19]; > 100 µM (inactive) in experiment [5]; > 100 µM (inactive) in experiment [20]; > 100 µM (inactive) in experiment [6]; > 100 µM (inactive) in [7]. Also, the GI50 in experiment [8], in [10], in experiment [11], in [12], in experiment [13] and in [14] was > 100 µM (inactive) in each case. In addition, in experiment [15], the GI50 was > 100 µM (inactive).
Regarding `Cc1cc(=O)oc2cc3c(cc12)Oc1ccccc1O3`, the GI50 in experiment [1] was > 100 µM (inactive); in experiment [2], > 100 µM (inactive); in [3], > 100 µM (inactive); in experiment [16] it was > 10 µM (inactive); in experiment [4], more than 100 µM; in [5], 45.1 µM (inactive). Moreover, the GI50 in [6] was > 100 µM (inactive); in experiment [7] it was 21.1 µM (inactive); in experiment [8], > 100 µM (inactive); in experiment [9], > 10 µM (inactive); in [10], 38.3 µM (inactive); in experiment [11] it was 18.1 µM (inactive). Moreover, the GI50 in [12] is > 100 µM (inactive); in experiment [13], > 10 µM (inactive); in [14], > 100 µM (inactive); in experiment [15], > 10 µM (inactive).
Turning to `CNNC1=NS(=O)(=O)c2cc(C)c(Cl)cc2S1`, the GI50 in experiment [17], in experiment [1], in [2], in experiment [3], in [18] and in [16] was > 10 µM (inactive) throughout. The GI50 in experiment [4] is more than 10 µM; in experiment [19] it was > 10 µM (inactive); in [5] it was > 10 µM (inactive); in experiment [20], > 10 µM (inactive); in experiment [6] it was > 10 µM (inactive); in [7] it was > 10 µM (inactive). For the same compound, the GI50 in experiment [8], in experiment [10], in experiment [11], in experiment [12], in experiment [13] and in [14] was > 10 µM (inactive) throughout. Also, the GI50 in experiment [15] is > 10 µM (inactive).
Regarding `CC1=CC(C)C/C=C/C2C3OC3(C)C(C)C3C(Cc4c[nH]c5ccccc45)NC(=O)C23C(=O)C=CC(=O)C1O` (stereo unspecified), the GI50 was 1.4 µM (inactive) in experiment [17]; 1.42 µM (inactive) in experiment [1]; 5.26 µM (inactive) in experiment [2]; 11.8 µM (inactive) in experiment [3]; 4.56 µM (inactive) in experiment [18]; 0.247 µM (active) in [16]. For the same compound, the GI50 in experiment [4] was 2.26 µM; in [19], 17.9 µM (inactive); in experiment [5] it was 16.4 µM (inactive); in experiment [20], 5.53 µM (inactive); in experiment [6], 3.57 µM (inactive); in experiment [7], 0.728 µM (active). Moreover, the GI50 in experiment [8] was 8.77 µM (inactive); in experiment [10], 15.1 µM (inactive); in experiment [11], 6.97 µM (inactive); in experiment [12] it was 2.01 µM (inactive); in experiment [13], 1.61 µM (inactive); in [14], 1.56 µM (inactive). Moreover, the GI50 in experiment [15] is 1.19 µM (inactive).
On to `O=C(N/C(=C\c1ccc([N+](=O)[O-])cc1)c1nc2ccccc2s1)c1ccccc1`, for which the GI50 in experiment [17] is > 10 µM (inactive); in experiment [1], 31.6 µM (inactive); in experiment [2], 29.3 µM (inactive); in experiment [3] it was 29.9 µM (inactive); in experiment [16], 19.1 µM (inactive); in experiment [4] it was 27.2 µM. Further, the GI50 is 31.6 µM (inactive) in experiment [5]; 31.9 µM (inactive) in experiment [6]; 26.7 µM (inactive) in experiment [7]; 20.9 µM (inactive) in experiment [8]; 44.8 µM (inactive) in experiment [9]; 20.1 µM (inactive) in [10]. In addition, the figures for the GI50 in experiment [11], in experiment [12] and in [14] were 23.6 µM (inactive), 19.1 µM (inactive) and > 100 µM (inactive), respectively.
